Data reported in publication PMC8508980, “Design, Synthesis and Anticancer Profile of New 4-(1H-benzo[d]imidazol-1-yl)pyrimidin-2-amine-Linked Sulfonamide Derivatives with V600EBRAF Inhibitory Effect” (International Journal of Molecular Sciences, 2021).
Where two headings read alike, the source gives them in different places.

Experiments:
SK-MEL-5 cells = test: Antiproliferative MTT assay; assay type: cell-based; settings: Homo sapiens, 48 h, mean ± S.D. of two experiments
Protocol: (§1) The effect of final target compounds over A375 and SK-MEL-5 was performed using reported procedures (detailed procedure is located in the Supplementary Information page 51s). […]
(§2) Evaluation of the Antiproliferative Activity Against A375 and SK-MEL-5
(§3) A375 and SK-MEL-5 cells were purchased from American Type Culture Collection (ATCC, Ro ckv ille, MD, USA) and maintained in Dulbecco’s modified eagle medium (DMEM, Welgene, Daegu, Republic of Korea) supplemented with 10% fetal bovine serum (FBS, Welgene, Daegu, Republic of Korea) and 1% penicillin/streptomycin (Welgene, Daegu, Republic of Korea) in a hu midified atmo sphere with 5% CO2 at 37 °C. Both cells were taken from culture substrate with 0.05% trypsin-0.02% EDTA and plated at a density of 5 × 10^3 cells/well in 96 well plates and then incubated at 37 °C fo r 24 h in a hu midified atmo sphere with 5% CO2 prior to treatment with various concentrations (3-fold serial dilution, 12 points) of the tested compounds. The cells were incubated for 48 h after treatment with the test compounds. The cell viability was assessed by the conventional 3-(4,5-dimethylthiazol-2-yl)-2,5-diphenyltetrazolium bromide (MTT) reduction assay. MTT assays were carried out with CellTiter 96® (Promega) according to the manufacturer’s instructions. The absorbance at 590 nm was recorded using EnVision 2103 (Perkin Elmer; Bo ston , MA, USA). The IC50 values were calculated using GraphPad Prism 4.0

A375 cells = test: Antiproliferative MTT assay; assay type: cell-based; settings: Homo sapiens, A-375, 48 h, mean ± S.D. of two experiments
Protocol: as §1, §2, §3

CRAF = CRAF (Homo sapiens, UniProt P04049); test: Reaction Biology kinase HotSpot enzyme assay; assay type: biochemical; settings: 1 µM ATP, mean ± S.D. of two separate experiments
Protocol: (§4) Reaction Biology Corp. Kinase HotSpotTM service http://www.reactionbiology.com was used for screening of compounds IC50 Proﬁler Express for IC50 measurement. Assay protocol: In a ﬁnal reaction volume of 25 μL, kinase (5–10 mU) is incubated with 25 mM Tris pH 7.5, 0.02 mM EGTA, 0.66 mg/mL myelin basic protein, 10 mM magnesium acetate and [γ33P-ATP] (speciﬁc activity approx. 500 cpm/pmol, concentration as required). The reaction is initiated by the addition of the Mg-ATP mix. After incubation for 40 min at room temperature, the reaction is stopped by the addition of 5 μL of a 3% phosphoric acid solution. 10 μL of the reaction is then spotted onto a P30 ﬁltermat, and washed three times for 5 min in 75 mM phosphoric acid and once in methanol prior to drying and scintillation counting.

V600EBRAF = biological target: T1, V600EBRAF (Homo sapiens, UniProt P15056, V600E); test: Reaction Biology kinase HotSpot enzyme assay; assay type: biochemical; settings: 1 µM ATP; for IC50: mean ± S.D. of two separate experiments; for % Inhibition at 1 µM over V600EBRAF / inhibition at 1 µM: single dose 1 µM, mean ± S.D. of two experiments; for inhibition at 1 µM: read-out: % Inhibition at 1 µM over V600EBRAF
T1 construct: purchased Reaction Biology Corp. (Kinase HotSpot service)
Protocol: Reaction Biology Corp. Kinase HotSpotTM service
as §4, with “Proﬁler” for “Reaction Biology Corp. Kinase HotSpotTM service http://www.reactionbiology.com was used for screening of compounds IC50 Proﬁler”

BRAF (wild-type) = biological target: T2, BRAF (wild-type) (Homo sapiens, UniProt P15056); test: Reaction Biology kinase HotSpot enzyme assay; assay type: biochemical; settings: 1 µM ATP; mean ± S.D. of two separate experiments
T2 construct: purchased Reaction Biology Corp. (Kinase HotSpot service)
Protocol: The enzymatic assays were performed in Reaction Biology Corp. using the standard protocol at 1 µM ATP and threefold dilution factor (detailed procedure is found in the Supplementary Information page 52 s).
as §4

Sequence of CRAF (P04049 whole entry): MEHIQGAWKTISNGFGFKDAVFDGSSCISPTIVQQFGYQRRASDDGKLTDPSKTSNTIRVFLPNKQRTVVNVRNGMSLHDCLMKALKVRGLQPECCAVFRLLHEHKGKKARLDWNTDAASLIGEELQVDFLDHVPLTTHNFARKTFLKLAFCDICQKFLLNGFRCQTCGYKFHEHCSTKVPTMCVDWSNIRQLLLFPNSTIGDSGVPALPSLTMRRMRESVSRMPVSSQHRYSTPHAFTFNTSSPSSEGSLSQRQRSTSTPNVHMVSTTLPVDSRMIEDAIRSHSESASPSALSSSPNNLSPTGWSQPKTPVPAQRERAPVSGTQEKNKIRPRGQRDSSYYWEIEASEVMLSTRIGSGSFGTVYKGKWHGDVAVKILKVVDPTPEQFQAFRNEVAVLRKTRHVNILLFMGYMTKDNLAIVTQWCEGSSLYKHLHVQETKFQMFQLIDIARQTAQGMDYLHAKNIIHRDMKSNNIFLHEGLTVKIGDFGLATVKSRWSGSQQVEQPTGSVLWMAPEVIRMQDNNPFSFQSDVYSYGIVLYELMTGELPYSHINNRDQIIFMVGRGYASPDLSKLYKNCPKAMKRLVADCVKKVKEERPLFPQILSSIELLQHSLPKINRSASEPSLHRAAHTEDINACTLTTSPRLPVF
T2 sequence (P15056 whole entry): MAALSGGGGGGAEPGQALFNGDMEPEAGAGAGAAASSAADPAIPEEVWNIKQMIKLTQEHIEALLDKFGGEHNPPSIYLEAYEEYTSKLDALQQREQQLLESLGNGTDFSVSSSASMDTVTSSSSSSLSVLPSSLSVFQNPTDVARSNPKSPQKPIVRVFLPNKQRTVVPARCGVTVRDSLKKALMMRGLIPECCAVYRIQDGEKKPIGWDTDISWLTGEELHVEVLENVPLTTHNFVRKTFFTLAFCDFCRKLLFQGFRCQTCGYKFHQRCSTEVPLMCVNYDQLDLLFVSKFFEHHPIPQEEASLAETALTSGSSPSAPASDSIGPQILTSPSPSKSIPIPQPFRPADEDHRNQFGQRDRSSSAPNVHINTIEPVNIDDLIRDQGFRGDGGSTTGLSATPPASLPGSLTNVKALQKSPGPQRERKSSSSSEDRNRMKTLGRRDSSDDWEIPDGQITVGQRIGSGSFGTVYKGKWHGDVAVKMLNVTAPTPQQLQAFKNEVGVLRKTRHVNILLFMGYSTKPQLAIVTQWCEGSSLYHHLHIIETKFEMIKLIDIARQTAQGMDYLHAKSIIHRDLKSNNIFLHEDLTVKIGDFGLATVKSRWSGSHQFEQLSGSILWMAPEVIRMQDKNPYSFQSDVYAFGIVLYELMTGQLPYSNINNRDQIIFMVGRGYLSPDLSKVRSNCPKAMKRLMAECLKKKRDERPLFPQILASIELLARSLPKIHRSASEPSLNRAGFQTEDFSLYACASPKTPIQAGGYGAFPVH
T1 sequence (P15056 whole entry V600E): as the sequence (P15056 whole entry) above, with V600E counted along it

SMILES | IC50 (SK-MEL-5 cells) [nM] | IC50 (A375 cells) [nM] | IC50 (CRAF; read-out: IC50 CRAF) [nM] | IC50 (V600EBRAF) [nM] | % Inhibition at 1 µM over V600EBRAF (V600EBRAF) [%] | inhibition at 1 µM (V600EBRAF) [%] | IC50 (BRAF (wild-type)) [nM] | IC50 (CRAF; IC50 CRAF) [nM]
COc1ccc(S(=O)(=O)NCCNc2nccc(-n3cnc4ccccc43)n2)cc1 [12f, N-(2-((4-(1H-benzo [d]imidazol-1-yl)pyrimidin-2-yl)amino)ethyl)-4-methoxy benzenesulfonamide] | 18700 ± 690 | 12600 ± 440 | 1670 ± 210 | 980 ± 20 | 55.21 ± 0.52 | 55 | 1980 ± 120 | 
O=S(=O)(NCCCNc1nccc(-n2cnc3ccccc32)n1)c1ccc(Cl)cc1 [12j, N-(3-((4-(1H-benzo [d]imidazol-1-yl)pyrimidin-2-yl)amino)propyl)-4-chloro benzenesulfonamide] | 12900 ± 720 | 10400 ± 240 | 1020 ± 77 | 790 ± 51 | 88.14 ± 0.19 | 88 | 1130 ± 99 | 
O=S(=O)(NCCNc1nccc(-n2cnc3ccccc32)n1)c1ccc(F)cc1 [12b, N-(2-((4-(1H-benzo [d]imidazol-1-yl)pyrimidin-2-yl)amino)ethyl)-4-fluorobenzenesulfonamide] | 15600 ± 370 | 10500 ± 220 | 1340 ± 190 | 740 ± 51 | 75.17 ± 0.27 | 75 | 1510 ± 220 | 
Cc1ccc(S(=O)(=O)NCCNc2nccc(-n3cnc4ccccc43)n2)cc1 [12g, N-(2-((4-(1H-benzo [d]imidazol-1-yl)pyrimidin-2-yl)amino)ethyl)-4-methyl benzenesulfonamide] | 8250 ± 120 | 7220 ± 230 | 1480 ± 99 | 790 ± 42 | 82.11 ± 0.32 | 82 | 1530 ± 260 | 
O=S(=O)(NCCNc1nccc(-n2cnc3ccccc32)n1)c1ccc(Cl)cc1 [12c, N-(2-((4-(1H-benzo [d]imidazol-1-yl)pyrimidin-2-yl)amino)ethyl)-4-chlorobenzenesulfonamide] | 17600 ± 490 | 11000 ± 360 | 1490 ± 230 | 820 ± 24 | 70.55 ± 0.71 | 71 | 1380 ± 170 | 
O=S(=O)(NCCCNc1nccc(-n2cnc3ccccc32)n1)c1ccc(Br)cc1 [12k, N-(3-((4-(1H-benzo [d]imidazol-1-yl)pyrimidin-2-yl)amino)propyl)-4-bromo benzenesulfonamide] | 13500 ± 390 | 12000 ± 470 | 990 ± 85 | 810 ± 56 | 73.81 ± 0.75 | 74 | 1530 ± 110 | 
O=S(=O)(NCCNc1nccc(-n2cnc3ccccc32)n1)c1ccc(Br)cc1 [12d, N-(2-((4-(1H-benzo [d]imidazol-1-yl)pyrimidin-2-yl)amino)ethyl)-4-bromobenzenesulfonamide] | 19700 ± 510 | 11800 ± 710 | 2100 ± 180 | 910 ± 19 | 69.28 ± 0.51 | 69 | 1790 ± 150 | 
O=S(=O)(NCCCNc1nccc(-n2cnc3ccccc32)n1)c1cccc2ccccc12 [12n, N-(3-((4-(1H-benzo [d]imidazol-1-yl)pyrimidin-2-yl)amino)propyl)naphthalene-1-sulfonamide] | 17800 ± 620 | 16900 ± 810 |  | 1280 ± 144 | 41.27 ± 0.46 | 41 | 3540 ± 175 | 1780 ± 156
O=S(=O)(NCCNc1nccc(-n2cnc3ccccc32)n1)c1ccc(C(F)(F)F)cc1 [12e, N-(2-((4-(1H-benzo [d]imidazol-1-yl)pyrimidin-2-yl)amino)ethyl)-4-(trifluoromethyl)benzenesulfonamide] | 6540 ± 180 | 2890 ± 140 | 1140 ± 88 | 620 ± 31 | 98.24 ± 0.44 | 98 | 1250 ± 95 | 
O=S(=O)(NCCCNc1nccc(-n2cnc3ccccc32)n1)c1ccc(C(F)(F)F)cc1 [12l, N-(3-((4-(1H-benzo [d]imidazol-1-yl)pyrimidin-2-yl)amino)propyl)-4-(trifluoromethyl) benzenesulfonamide] | 2020 ± 90 | 1850 ± 110 | 840 ± 76 | 490 ± 61 | 98.75 ± 0.58 | 99 | 940 ± 65 | 
COc1ccc(S(=O)(=O)NCCCNc2nccc(-n3cnc4ccccc43)n2)cc1 [12m, N-(3-((4-(1H-benzo [d]imidazol-1-yl)pyrimidin-2-yl)amino)propyl)-4-methoxy benzenesulfonamide] | 14600 ± 710 | 13100 ± 270 | 960 ± 79 | 820 ± 48 | 51.26 ± 0.29 | 51 | 1460 ± 86 | 
O=S(=O)(NCCCNc1nccc(-n2cnc3ccccc32)n1)c1ccccc1 [12h, N-(3-((4-(1H-benzo [d]imidazol-1-yl)pyrimidin-2-yl)amino)propyl)benzenesulfonamide] | 11300 ± 290 | 9260 ± 160 | 2140 ± 78 | 1120 ± 98 | 49.54 ± 0.61 | 50 | 2320 ± 110 | 
O=S(=O)(NCCNc1nccc(-n2cnc3ccccc32)n1)c1ccccc1 [12a, N-(2-((4-(1H-benzo [d]imidazol-1-yl)pyrimidin-2-yl)amino)ethyl)benzenesulfonamide] | 20400 ± 860 | 12800 ± 410 | 2980 ± 210 | 1910 ± 140 | 30.35 ± 0.41 | 30 | 3250 ± 450 | 
O=S(=O)(NCCCNc1nccc(-n2cnc3ccccc32)n1)c1ccc(F)cc1 [12i, N-(3-((4-(1H-benzo [d]imidazol-1-yl)pyrimidin-2-yl)amino)propyl)-4-fluorobenzenesulfonamide] | 2360 ± 210 | 1950 ± 130 | 980 ± 44 | 530 ± 22 | 97.81 ± 0.82 | 98 | 1330 ± 81 | 
